Test system: mast cells
Experiment: Suppressive effect on the isolation of histamine from mast cells (compound 48/80 induced)
Type: cell-based, Wister rats
Details: DSCG 0.1 mg/mL; same line of test procedures
Experimental: The anti-allergic effects of the Maca extract of the present invention can be evaluated by the suppressive effect on the isolation of histamine from mast cells. The Suppressive Effect on the Isolation of Histamine from Mast Cells The test was conducted according to the method of Yuko HIRAI, et al. (Natural Medicines: Vol. 37, p374-380, 1983). That is, Tyrode was interperitoneally injected to Wister rats bled to death and peritoneal cavity cells were taken. Therefrom, mast cells were isolated by the multilevel centrifugal method using Bovine Serum Albumin (BSA)/physiological saline (relative gravity: 1.068). […] The resultant was then ice cooled and amount of histamine in the supernatant after centrifugation (150 g×5 minutes) was measured by high performance liquid chromatography with fluorescence detector attachment. […] The solution obtained was each measured to 0.25 mg/mL, and the above explained suppressive effect on the isolation of histamine from mast cell was evaluated. On the other hand, the above explained suppressive effect on the isolation of histamine from mast cell was evaluated for control solutions 1 to 3 which were obtained in the same procedures as for the solutions of the present invention except for extraction condition such as extraction temperature and ethanol concentration.

O=C(O)c1cc(=O)c2c(OCC(O)COc3cccc4oc(C(=O)O)cc(=O)c34)cccc2o1 [DSCG, sodium cromoglycate]
suppressive effect on isolation of histamine: 50%

From patent US20070280975A1, “Method for Producing Maca Extract” (Suntory Limited, priority 2004, published 2007)
